Reference: patent publication EP3861981B1, “NOVEL SERTACONAZOLE COMPOSITIONS” (Dr. Pfleger Arzneimittel GmbH, priority 2020, dated 2021)

Legend:
Assay type in all cases: physicochemical
[1] = Example 2: solubility of sertaconazole nitrate in solubilizers, macroscopic
Protocol: Mixtures of 2 wt.-% sertaconazole nitrate and 98 wt.-% of solubilizers were prepared and shaken for 24 h at 150 rpm and at room temperature. Subsequently, the samples were macroscopically examined by evaluating the amount and appearance of the sediment.

[2] = Example 3: solubility of sertaconazole nitrate in mixtures of solvent and solubilizer
Protocol: Mixtures of 2 wt.-% sertaconazole nitrate and 98 wt.-% of a mixture of solvent and solubilizers (the amount of solubilizer with respect to the total mixture of sertaconazole nitrate, solvent and solubilizer is indicated in the subsequent table) were prepared and shaken for 24 h at 150 rpm and at room temperature. Subsequently, the samples were macroscopically examined by evaluating the amount and appearance of the sediment.

[3] = Example 1: solubility of sertaconazole nitrate in solvents, macroscopic
Protocol: Mixtures of 2 wt.-% sertaconazole nitrate and 98 wt.-% of solvents were prepared and shaken for 24 h at 150 rpm and at room temperature. Subsequently, the samples were macroscopically examined by evaluating the amount and appearance of the sediment.

appearance ([1]; Dimethylphthalate): Milky mixture with sediment | appearance ([1]; Glycerine (cell below, Marcogol 300, empty, possibly merged)): Clear solution with sediment | appearance ([1]; Polyglycol M350 (cells below, propylene glycol, transcutol, macrogol 400, empty, possibly merged)): Dissolved | amount and appearance of the sediment ([2]; Ethanol + Macrogol 400 10 wt.-%): Minimal crystal-line sediment | amount and appearance of the sediment ([2]; Ethanol + Macrogol 400 20 wt.-%): clear | amount and appearance of the sediment ([2]; Ethanol + Macrogol 400 30 wt.-%): clear | amount and appearance of the sediment ([2]; Ethanol + Polyglycol M350 10 wt.-%): Minimal crystal-line sediment | amount and appearance of the sediment ([2]; Ethanol + Polyglycol M350 20 wt.-%): clear | amount and appearance of the sediment ([2]; Ethanol + Polyglycol M350 30 wt.-%): clear | amount and appearance of the sediment ([2]; Ethyl acetate + Propylene glycol 30 wt.-%): Clear | solubility ([3]; 2 wt.-% in 98 wt.-% solvent, 24 h, room temperature, trend over water, butyl acetate, ethyl acetate, isopropanol, ethanol): Increasing from water to ethanol | appearance ([3]; Ethanol): Low, crystalline sediment | appearance ([3]; Water): Not dissolved, powdery, white sediment | sediment ([3]; trend over water, butyl acetate, ethyl acetate, isopropanol, ethanol): Decreasing from water to etanol
SMILES: Clc1ccc(C(Cn2ccnc2)OCc2csc3c(Cl)cccc23)c(Cl)c1 (centres unmarked) [sertaconazole nitrate]
solubility ([1]; 2 wt.-% in 98 wt.-% solubilizer, 24 h, room temperature, trend from dimethylphthalate to macrogol 400): Increasing from dimethylphthalate to macrogol 400 | amount and appearance of the sediment ([2]; Butyl acetate + Macrogol 400 10-30 wt.-%): Sediment, no change observed by increasing amount of macrogol 400 | amount and appearance of the sediment ([2]; Butyl acetate + Polyglycol M350 10-30 wt.-%): White powdery sediment, no change observed by increas-ing amount of polyglycol M350 | amount and appearance of the sediment ([2]; Butyl acetate + Propylene glycol 10-30 wt.-%): Clear decrease of sediment with increase of propylene gly-col | amount and appearance of the sediment ([2]; Butyl acetate + Transcutol 10-30 wt.-%): Sediment, no change observed by increasing amount of transcutol | amount and appearance of the sediment ([2]; Butyl acetate + Water 10-30 wt.-%): Sediment (partially powdery white), increase of sediment with increasing amount of water | amount and appearance of the sediment ([2]; Ethanol + Dimethylphthalate 10-30 wt.-%): Sediment (slightly crystalline), minimal decrease of sedi-ment with increasing of amount of dimethylphthalate | amount and appearance of the sediment ([2]; Ethanol + Propylene glycol 10-30 wt.-%): Minimal crystalline sediment, decrease of sediment with increase of amount of propylene glycol | amount and appearance of the sediment ([2]; Ethanol + Transcutol 10-30 wt.-%): Minimal crystalline sediment, decrease of sediment with increase of amount of transcutol | amount and appearance of the sediment ([2]; Ethanol + Water 10-30 wt.-%): Sediment (powdery/crystalline), no change observed by in-creasing amount of water | amount and appearance of the sediment ([2]; Ethyl acetate + Dimethylphthalate 10-30 wt.-%): Crystalline sediment, better solubility than pure ethyl ace-tate | amount and appearance of the sediment ([2]; Ethyl acetate + Macrogol 400 10-30 wt.-%): Crystalline sediment, minimal decrease of sediment with increase of amount of macrogol 400 | amount and appearance of the sediment ([2]; Ethyl acetate + Polyglycol M350 10-30 wt.-%): White, powdery sediment, no change observed by in-crease of amount of polyglycol M350 | amount and appearance of the sediment ([2]; Ethyl acetate + Propylene glycol 10-20 wt.-%): Decrease of crystalline sediment with increase of amount of propylene gly-col | amount and appearance of the sediment ([2]; Ethyl acetate + Transcutol 10-30 wt.-%): Powdery/crystalline sediment, no change observed by in-crease of amount of transcutol | amount and appearance of the sediment ([2]; Ethyl acetate + Water 10-30 wt.-%): Sediment (partially powdery white), increase of sediment with increasing amount of water | amount and appearance of the sediment ([2]; Isopropanol + Macrogol 400 10-30 wt.-%): Crystalline sediment, no change observed by increasing amount of macrogol 400 | amount and appearance of the sediment ([2]; Isopropanol + Polyglycol M350 10-30 wt.-%): White sediment, clear decrease of sediment with increas-ing amount of polyglycol M350 | amount and appearance of the sediment ([2]; Isopropanol + Propylene glycol 10-30 wt.-%): Crystalline sediment, no change observed by increasing amount of propylene glycol | amount and appearance of the sediment ([2]; Isopropanol + Transcutol 10-30 wt.-%): Crystalline sediment, no change observed by increasing amount of transcutol | amount and appearance of the sediment ([2]; Isopropanol + Water 10-30 wt.-%): White powdery sediment, no change observed by increas-ing amount of water
